One may read the IC50 as the concentration needed to halve the response being measured. High values mean lower potency, low ones higher potency.

One test has as its target full-length human LSD1 (Homo sapiens (Human), UniProt O60341). Put plainly: In vitro enzyme inhibition assay LSD-1 (TR-FRET). The format is biochemical. The conditions noted are these: H3K4me1-biotin peptide. The procedure: This assay determines the ability of a test compound to inhibit LSD1 demethylase activity.
The enzymatic assay of LSD1 activity is based on Time Resolved-Fluorescence Resonance Energy Transfer (TR-FRET) detection.
Plates were read by EnVision Multilabel Reader in TR-FRET mode (excitation at 320 nm, emission at 615 nm and 665 nm) after 1 hour incubation at room temperature.
The ability of the compounds disclosed herein to inhibit LSD1 activity was quantified and the respective IC50 value was determined.

The test system of test [1] is CD11b expression in THP-1 (AML) cells. Put plainly: LSD1 CD11b cellular assay (flow cytometry). In kind it is cell-based. Particulars: Homo sapiens, 96 h, THP-1 cells, 4 days. As for the experimental part:
To analyze LSD1 inhibitor efficacy in cells, a CDL11b flow cytometry assay was performed. LSD1 inhibition induces CD11b expression in THP-1 (AML) cells which can be measured by flow cytometry. […] LSD 1 test compounds were serially diluted in DMSO. The dilutions were added to each well accordingly to a final concentration of 0.2% DMSO. The cells were incubated at 37 degrees Celsius in 5% CO2 for 4 days. 250 μL of each well was transferred to a well in a 96 well round bottom plate. The plate was centrifuged at 1200 rpm at 4 degrees Celsius in a Beckman Coulter Alegra 6KR centrifuge for 5 minutes. The media was removed leaving the cells at the bottom of the wells. The cells were washed in 100 μL cold HBSS (Hank's Balanced Salt Solution) plus 2% BSA (Bovine Serum Albumin) solution and centrifuged at 1200 rpm at 4 degrees Celsius for 5 minutes. The wash was removed. […] The cells were centrifuged and washed two times in 100 μl HBSS plus 2% BSA. After the final spin the cells were resuspended in 100 μL HBSS plus 2% BSA containing 1 ug/mL DAPI (4′,6-diamidino-2-phenylindole). The cells were then analyzed by flow cytometry in a BD FACSAria machine. Cells were analyzed for CD11b expression. The percent of CD11b expressing cells for each inhibitor concentration was used to determine an IC50 curve for each compound analyzed.

SMILES strings stand for the structures. Bounds are passed on as bounds.

Consider `CN[C@H]1CCN(C(=O)c2cn(-c3ccc(OC)c(F)c3)c(-c3ccc(C#N)c(F)c3)n2)C1` [Example 65, 2-Fluoro-4-[1-(3-fluoro-4-methoxyphenyl)-4-[(3S)-3-(methylamino)pyrrolidine-1-carbonyl]imidazol-2-yl]benzonitrile], for which the IC50 (against full-length human LSD1; in test [1]) was less than 0.1 µM in each case.
Consider `COc1ccc(-n2c(-c3ccc(C#N)c(F)c3)nc(C(=O)N3CCC[C@@H](N)C3)c2Cl)cc1F` [Example 66, 4-[4-[(3R)-3-Aminopiperidine-1-carbonyl]-5-chloro-1-(3-fluoro-4-methoxyphenyl)imidazol-2-yl]-2-fluorobenzonitrile], for which the IC50 (against full-length human LSD1; in test [1]) was less than 0.1 µM in each case.
In the case of `CN[C@H]1CCN(C(=O)c2nc(-c3ccc(C#N)c(F)c3)n(-c3ccc(OC)c(F)c3)c2F)C1` [Example 68, 2-Fluoro-4-[5-fluoro-1-(3-fluoro-4-methoxyphenyl)-4-[(3S)-3-(methylamino)pyrrolidine-1-carbonyl]imidazol-2-yl]benzonitrile], the IC50 (at full-length human LSD1; in test [1]) was less than 0.1 µM each time.
Regarding `CN[C@H]1CCN(C(=O)c2nc(-c3ccc(C#N)c(F)c3)n(-c3ccc(OC)cc3)c2C)C1` [Example 69, 2-Fluoro-4-[1-(4-methoxyphenyl)-5-methyl-4-[(3S)-3-(methylamino)pyrrolidine-1-carbonyl]imidazol-2-yl]benzonitrile], the IC50 (against full-length human LSD1; in test [1]) was less than 0.1 µM in each case.
Consider `CN[C@H]1CCN(C(=O)c2cn(-c3ccc(OC)cc3)c(-c3ccc(C#N)c(F)c3)n2)C1` [Example 71, 2-Fluoro-4-[1-(4-methoxyphenyl)-4-[(3S)-3-(methylamino)pyrrolidine-1-carbonyl]imidazol-2-yl]benzonitrile], for which the IC50 (at full-length human LSD1; in test [1]) was less than 0.1 µM in each case.
Take `CN[C@@H]1CCCN(C(=O)c2cn(-c3ccc(OC)cc3)c(-c3ccc(C#N)c(F)c3)n2)C1` [Example 72, 2-Fluoro-4-[1-(4-methoxyphenyl)-4-[(3R)-3-(methylamino)piperidine-1-carbonyl]imidazol-2-yl]benzonitrile]: the IC50 (at full-length human LSD1; in test [1]) was less than 0.1 µM in each case.
Regarding `CN[C@H]1CCN(C(=O)c2nc(-c3ccc(C#N)c(F)c3)n(-c3ccc(OC)cc3)c2F)C1` [Example 73, 2-Fluoro-4-[5-fluoro-1-(4-methoxyphenyl)-4-[(3S)-3-(methylamino)pyrrolidine-1-carbonyl]imidazol-2-yl]benzonitrile], the IC50 (against full-length human LSD1; in test [1]) was less than 0.1 µM in each case.
On to `CN[C@@H]1CCCN(C(=O)c2nc(-c3ccc(C#N)c(F)c3)n(-c3ccc(OC)cc3)c2F)C1` [Example 74, 2-Fluoro-4-[5-fluoro-1-(4-methoxyphenyl)-4-[(3R)-3-(methylamino)piperidine-1-carbonyl]imidazol-2-yl]benzonitrile], for which the IC50 (on full-length human LSD1; in test [1]) was less than 0.1 µM in each case.
With `Cn1cc2cc(-n3c(-c4ccc(C#N)c(F)c4)nc(C(=O)N4CCC[C@@H](N)C4)c3Cl)ccc2n1` [Example 75, 4-[4-[(3R)-3-Aminopiperidine-1-carbonyl]-5-chloro-1-(2-methylindazol-5-yl)imidazol-2-yl]-2-fluorobenzonitrile], the IC50 (against full-length human LSD1; in test [1]) was less than 0.1 µM in each case.
Turning to `Cn1cc2cc(-n3c(-c4ccc(C#N)c(F)c4)nc(C(=O)N4CCC[C@@H](N)C4)c3F)ccc2n1` [Example 77, 4-[4-[(3R)-3-Aminopiperidine-1-carbonyl]-5-fluoro-1-(2-methylindazol-5-yl)imidazol-2-yl]-2-fluorobenzonitrile], the half-maximal inhibitory concentration (IC50) (on full-length human LSD1; in test [1]) was less than 0.1 µM throughout.
For `Cc1c(C(=O)N2CC[C@H](N)C2)nc(-c2ccc(C#N)c(F)c2)n1-c1ccc(C2CC2)nc1` [Example 79, 4-[4-[(3S)-3-Aminopyrrolidine-1-carbonyl]-1-(6-cyclopropylpyridin-3-yl)-5-methylimidazol-2-yl]-2-fluorobenzonitrile], the IC50 (on full-length human LSD1; in test [1]) was less than 0.1 µM each time.
On to `N#Cc1ccc(-c2nc(C(=O)N3CCC[C@@H](N)C3)c(Cl)n2-c2ccc(C3CC3)nc2)cc1F` [Example 80, 4-[4-[(3R)-3-Aminopiperidine-1-carbonyl]-5-chloro-1-(6-cyclopropylpyridin-3-yl)imidazol-2-yl]-2-fluorobenzonitrile], for which the IC50 is less than 0.1 µM against full-length human LSD1 and 0.1 to 1 µM in test [1].
As for `N#Cc1ccc(-c2nc(C(=O)N3CC[C@H](N)C3)c(Cl)n2-c2ccc(C3CC3)nc2)cc1F` [Example 81, 4-[4-[(3S)-3-Aminopyrrolidine-1-carbonyl]-5-chloro-1-(6-cyclopropylpyridin-3-yl)imidazol-2-yl]-2-fluorobenzonitrile], the IC50 (against full-length human LSD1; in test [1]) was less than 0.1 µM throughout.
For the molecule `COc1ccc(-n2c(-c3ccc(C#N)c(F)c3)nc(C(=O)N[C@@H]3CCCNC3)c2Cl)cc1F` [Example 84, 5-Chloro-2-(4-cyano-3-fluorophenyl)-1-(3-fluoro-4-methoxyphenyl)-N-[(3R)-piperidin-3-yl]imidazole-4-carboxamide], the IC50 (against full-length human LSD1; in test [1]) was less than 0.1 µM in each case.
In the case of `COc1ccc(-n2c(-c3ccc(C#N)c(F)c3)nc(C(=O)N[C@H]3CCCNC3)c2Cl)cc1F` [Example 85, 5-Chloro-2-(4-cyano-3-fluorophenyl)-1-(3-fluoro-4-methoxyphenyl)-N-[(3S)-piperidin-3-yl]imidazole-4-carboxamide], the IC50 on full-length human LSD1 was less than 0.1 µM; in test [1], 0.1 to 1 µM.
Regarding `COc1ccc(-n2c(-c3ccc(C#N)c(F)c3)nc(C(=O)N[C@@H]3CCCNC3)c2F)cc1F` [Example 86, 2-(4-Cyano-3-fluorophenyl)-5-fluoro-1-(3-fluoro-4-methoxyphenyl)-N-[(3R)-piperidin-3-yl]imidazole-4-carboxamide], the IC50 against full-length human LSD1 is less than 0.1 µM; in test [1] it was 0.1 to 1 µM.
As for `COc1ccc(-n2c(-c3ccc(C#N)c(F)c3)nc(C(=O)N3CC[C@H](N)C3)c2F)cc1F` [Example 89, 4-[4-[(3S)-3-Aminopyrrolidine-1-carbonyl]-5-fluoro-1-(3-fluoro-4-methoxyphenyl)imidazol-2-yl]-2-fluorobenzonitrile], the values for the IC50 (against full-length human LSD1; in test [1]) were less than 0.1 µM and 0.1 to 1 µM, respectively.
With `Cc1c(C(=O)N2CCC3(CCCN3)C2)nc(-c2ccc(C#N)c(F)c2)n1-c1ccc2nn(C)cc2c1` (stereo not drawn) [Example 90, 4-[4-(1,7-Diazaspiro[4.4]nonane-7-carbonyl)-5-methyl-1-(2-methylindazol-5-yl)imidazol-2-yl]-2-fluorobenzonitrile], the IC50 on full-length human LSD1 is less than 0.1 µM; in test [1], 0.1 to 1 µM.
For `Cc1c(C(=O)N2CCC3(CNC3)C2)nc(-c2ccc(C#N)c(F)c2)n1-c1ccc2nn(C)cc2c1` [Example 91, 4-[4-(2,6-Diazaspiro[3.4]octane-6-carbonyl)-5-methyl-1-(2-methylindazol-5-yl)imidazol-2-yl]-2-fluorobenzonitrile], in that order: less than 0.1 µM and less than 0.1 µM.
Taken in the same sequence, the figures for `Cc1c(C(=O)N2CCC3(CCN3)C2)nc(-c2ccc(C#N)c(F)c2)n1-c1ccc2c(cnn2C)c1` (stereo not drawn) [Example 92, 4-[4-(1,7-Diazaspiro[3.4]octane-7-carbonyl)-5-methyl-1-(1-methylindazol-5-yl)imidazol-2-yl]-2-fluorobenzonitrile] were less than 0.1 µM and 0.1 to 1 µM.
Taken in the same sequence, the figures for `Cn1nc2ccc(-n3cc(C(=O)N4CCC5(CCN5)C4)nc3-c3ccc(C#N)c(F)c3)cc2c1Cl` (stereo not drawn) [Example 93, 4-[1-(3-Chloro-2-methylindazol-5-yl)-4-(1,7-diazaspiro[3.4]octane-7-carbonyl)imidazol-2-yl]-2-fluorobenzonitrile] were less than 0.1 µM and 0.1 to 1 µM.
`Cc1c(C(=O)N2CC[C@H](N(C)C)C2)nc(-c2ccc(C#N)c(F)c2)n1-c1ccc2c(cnn2C)c1` [Example 95, 4-[4-[(3S)-3-(Dimethylamino)pyrrolidine-1-carbonyl]-5-methyl-1-(1-methylindazol-5-yl)imidazol-2-yl]-2-fluorobenzonitrile]: the IC50 (at full-length human LSD1; in test [1]) was less than 0.1 µM in each case.
Regarding `CN[C@H]1CCCN(C(=O)c2nc(-c3ccc(C#N)c(F)c3)n(-c3ccc4nn(C)cc4c3)c2C)C1` [Example 97, 2-Fluoro-4-[5-methyl-4-[(3S)-3-(methylamino)piperidine-1-carbonyl]-1-(2-methylindazol-5-yl)imidazol-2-yl]benzonitrile], the IC50 (on full-length human LSD1; in test [1]) was less than 0.1 µM each time.
Regarding `CN[C@@H]1CCCN(C(=O)c2nc(-c3ccc(C#N)c(F)c3)n(-c3ccc4nn(C)cc4c3)c2C)C1` [Example 98, 2-Fluoro-4-[5-methyl-4-[(3R)-3-(methylamino)piperidine-1-carbonyl]-1-(2-methylindazol-5-yl)imidazol-2-yl]benzonitrile], the IC50 (against full-length human LSD1; in test [1]) was less than 0.1 µM in each case.

The record behind these values is patent US10626103B2, “Inhibitor of lysine specific demethylase-1” (CELGENE QUANTICEL RESEARCH, INC., priority 2014, dated 2020).
